Reference: patent US10307383B2, “Cosmetic composition for preventing or ameliorating hypersensitive skin comprising cedrol or derivatives thereof, or pharmaceutically acceptable salts thereof” (University of Seoul Industry Cooperation Foundation, priority 2017, dated 2019)

How the values were obtained:
Format in all cases: in vivo, Balb/c mouse
[1] = test system: psoriasis induced mice (imiquimod); assay: Recovery effect on skin flair of the psoriasis induced mice after termination of imiquimod (PASI); conditions: for PASI reflecting skin flair: day 8 (imiquimod application stopped), 100 mg/kg oral; for skin flair disappearance (in words): on day 16, 100 mg/kg oral after termination of imiquimod
Procedure: (§1) Imiquimod was applied to the psoriasis induced mice which had developed psoriasis for a week in Example <2-1>. The application was stopped 8 days after the application began. The groups CON and IMQ were treated with distilled water, the group C was treated with cedrol, the group CA was treated with cedryl acetate, the group CE was treated with alpha-cedrene alone at the concentration of 100 mg/kg in 200 μl, every day via oral-administration. Day 8 was the day the imiquimod application was stopped, since then the compounds were administered for 1 week once a day, during which photo-recording was performed (FIGS. 13A˜13D).
Then, the psoriasis area severity index (Psoriasis Area Severity Index, PASI) was calculated, based on which the recovery effect on keratosis was evaluated.

[2] = test system: psoriasis induced mice (imiquimod); assay: Skin thickness of the psoriasis induced mice (hematoxylin and eosin staining); conditions: day 7, 100 mg/kg oral; for skin thickness: IMQ applied, control 1,045, IMQ alone 1,181; for skin thickness, % inhibition: versus IMQ alone
Procedure: (§2) To investigate the delayed effect of cedrol, cedryl acetate, and alpha-cedrene on the development of psoriasis, total 5 groups of mice were prepared (8 mice/group). First, the hair of the entire back of the 8-week-old male Balb/c mouse whose immune system was weakened was removed by using a hair clipper (Kimlaube Hair pen 325,327, Rikei, Korea). In the middle of the shaved back of the mouse, 2 mg of imiquimod (3M Health Care Limited, England) was applied in the area of 2 cm×1.5 cm and also 1,125 mg of imiquimod was applied on the right ear of the mouse every day once a day to induce psoriasis.
(§3) The mice prepared above were divided into the distilled water treated group (IMQ), the cedrol treated group (C), the cedryl acetate treated group (CA), and the alpha-cedrene treated group (CE). At this time, the mice were orally treated with distilled water at the concentration of 200 μl/mouse and cedrol or its derivatives at the concentration of 200 μl/mouse (100 mg/kg). The day when distilled water or the compound administration started was recorded as day 0 and the administration was performed once a day for a week, during which photo-recording was performed every day (FIGS. 2A˜2D). In the meantime, instead of applying imiquimod, 40 mg of vaseline was applied on the back of the control group (CONT) and 22.5 mg of vaseline was applied on the right ear of the control group. And the control group was orally administered with distilled water (200 μl/mouse).
The skin of the psoriasis induced mice orally administered with cedrol, cedryl acetate, and alpha-cedrene of Example <2-1> was stained with hematoxyline and eosine in order to compare the skin thickness.
Particularly, the psoriasis induced mice of Example <2-1> were sacrificed with CO2, from which 1 cm×1 cm portions of the back surface were obtained and placed in PBS. The tissues washed with PBS were loaded in 10% formalin, followed by fixing at room temperature for a day. The fixed tissues were washed with PBS once, followed by dehydration with 25% methanol, 50% methanol, 75% methanol, and 100% methanol for 30 minutes each. Further dehydration of those tissues was additionally performed with 100% ethanol twice for 30 minutes each; with the mixed solution comprising ethanol and xylene (1:1) for 30 minutes, and with 100% xylene twice for 30 minutes each. 4 hours before washing, the modular tissue embedding center (LEICA EG 1150H, Leica, Germany) was turned on and paraplast plus (Sigma Aldrich, Korea) was melted at 60° C., followed by washing the paraffin. The tissues were loaded in a bottle, to which the melted paraffin was poured in, followed by washing in a 60° C. warm chamber twice for one hour each. The xylene-free tissues were placed in the paraffin solution, followed by reaction in the warm chamber for a day. The tissue sections were then placed on a Peel-A-Way embedding mold (Polysciences, Taiwan) and the paraffin solution was filled to half of the mold. The tissue sections were placed on top of the Peel-A-Way embedding mold, followed by fixing. An embedding ring (Thomas Scientific, USA) was placed on the mold, which was treated with the paraffin solution to solidify the mold and the ring at 4° C. for 3 hours, followed by reaction at 4° C. for a day. The embedded tissues can be semipermanently stored at 4° C. The embedded tissues were cut by using a semi-motorized rotary microtome (LEICA RM2145 Microtome, Leica, Germany), which were suspended in a 37° C. water bath to spread the paraffin wrinkles. The straightened wrinkles were collected by using a micro silane coating slide (Muto Pure Chemicals, Japan), which were dried at 37° C. for a day. When the tissues were completely dried, they were treated with xylene twice for 5 minutes each in order to eliminate the paraffin remaining in the tissues. The tissues were further washed with the mixed solution comprising ethanol and xylene (1:1), 100% ethanol, 100% methanol, 75% methanol, and 50% methanol for 2 minutes each to stain the tissues easily. […]

[3] = test system: IL-17A expression in the spleen; assay: Inhibition of IL-17A expression in the spleen of the psoriasis induced mice (real-time PCR); conditions: 100 mg/kg oral, IMQ applied; for IL-17A expression value in the spleen (non-treated control group regarded as value 1): real-time PCR, IMQ alone 54.9±5.5
Procedure: as §2, §3
The inhibition of IL-17A expression in the spleen of the psoriasis Induced mice according to the oral administration of cedrol, cedryl acetate, and alpha-cedrene was investigated by real-time PCR (polymerase chain reaction).
Particularly, the spleen was extracted from the psoriasis Induced mice orally administered with cedrol, cedryl acetate, and alpha-cedrene of Example <2-1>. Total RNA was extracted from the spleen by the conventional method. To synthesize cDNA, 2 μg of RNA was loaded in 9 μl of DEPC (RNase free water), indicating the dilution of the concentration. 1 μl of oligo dT was added thereto, followed by reaction at 70° C. for 10 minutes. The sample was treated on ice for 5 minutes, to which 2 μl of 10× reaction buffer, 2 μl of dNTP (10 mM each), 1 μl of M-MLV reverse transcriptase, and 5 μl of DNase free water were added to make the total volume of the reaction mixture 20 μl. The mixture was reacted at 42° C. for 1 hour to synthesize cDNA. The reaction mixture was heated at 72° C. for 10 minutes to remove the reverse transcriptase activity. Then, the reaction mixture was stored at −20° C. Real-time PCR was performed by using AMPIGENE qPCR 1-Step Green Kit (Enzo Life Sciences Inc, USA). […]

[4] = test system: psoriasis induced mice (imiquimod); assay: Accelerating effect on hair regrowth of the psoriasis induced mice; conditions: for number of mice showing hair regrowth: 8 mice/group
Procedure: as §1
The psoriasis induced mice orally administered with cedrol, cedryl acetate, and alpha-cedrene of Example <3-1> were observed by the naked eye, and the number of mice showing hair regrowth was counted.

[5] = day 13, 100 mg/kg oral after termination of imiquimod
[6] = day 16, 100 mg/kg oral after termination of imiquimod, distilled water 5
[7] = 100 mg/kg oral after termination of imiquimod

SMILES | PASI reflecting skin flair [1] [point] | skin flair disappearance (in words) [1] | skin thickness [2] [μm] | skin thickness, % inhibition [2] [% inhibition] | IL-17A expression inhibition effect in the spleen, comparison in words [3] | IL-17A expression value in the spleen (non-treated control group regarded as value 1) [3] | number of mice showing hair regrowth [4, 5] | number of mice showing hair regrowth [4, 6] | number of mice showing hair regrowth ([4]; day 14, 100 mg/kg oral after termination of imiquimod) | skin flair recovery effect, comparison in words [1, 7] | accelerating effect on hair regrowth, comparison in words [4, 7]
CC1=CC[C@@]23C[C@@H]1C(C)(C)[C@@H]2CC[C@H]3C [alpha-cedrene, Alpha-cedrene] | 4.0±1.0 | skin flair of all mice disappeared | 954 | 19.2 | strongest inhibition effect | 31.0±3.1 | one | all the mice | – | – | –
CC(=O)O[C@]1(C)CC[C@@]23C[C@@H]1C(C)(C)[C@@H]2CC[C@H]3C [cedryl acetate, Cedryl acetate] | 4.0±0.0 | – | 999 | 15.3 | – | 7.4±0.7 | – | 7 mice | one | – | –
C[C@@H]1CC[C@H]2C(C)(C)[C@H]3C[C@@]12CC[C@@]3(C)O [cedrol, Cedrol] | 3.0±0.6 | skin flair of all mice disappeared | 954 | 19.2 | – | 1.1±0.1 | 2 mice | all the mice | – | strongest recovery effect | strongest accelerating effect
